Several values for one entry are separate records, joined by “and”; a condition that tells them apart may be missing. Equal values may be shown once.
Legend:
[1] = biological target: T1, α1a-AR (Homo sapiens, UniProt P35348); assay: α1-Adrenergic receptor radio-ligand (125I-HEAT) binding assay, α1a subtype; settings: COS-7 cell membranes transfected with α1a-AR, 125I-HEAT 50 pM; read-out: Receptor Binding, Ki α1a-AR
T1 construct: expressed in transfected cells; host or cells: COS-7
T1 sequence (P35348 1-466): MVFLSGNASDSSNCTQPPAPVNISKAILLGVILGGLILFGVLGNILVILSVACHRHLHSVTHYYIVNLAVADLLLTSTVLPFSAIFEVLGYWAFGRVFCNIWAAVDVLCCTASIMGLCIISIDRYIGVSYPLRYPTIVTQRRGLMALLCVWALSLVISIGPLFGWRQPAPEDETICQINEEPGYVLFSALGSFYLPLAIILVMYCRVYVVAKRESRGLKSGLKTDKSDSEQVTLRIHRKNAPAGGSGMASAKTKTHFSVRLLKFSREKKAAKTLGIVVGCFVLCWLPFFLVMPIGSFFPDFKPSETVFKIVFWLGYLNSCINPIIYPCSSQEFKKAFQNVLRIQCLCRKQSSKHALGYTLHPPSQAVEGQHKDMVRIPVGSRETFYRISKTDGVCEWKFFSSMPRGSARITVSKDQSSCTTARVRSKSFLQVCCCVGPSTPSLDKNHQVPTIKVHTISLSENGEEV
Experimental: (§1) Membranes were prepared from COS-7 cells (African Green monkey kidney SV40-transformed cells) that had been transfected with one of the three α1-AR subtypes by the following method:
(§2) COS cells from ten 100 mm tissue culture plates were scraped into a 5 mL volume of TE (a mixture of 50 mM tris(hydroxymethyl)aminomethane hydrochloride (Tris-HCl) and 5 mM ethylenediaminetetraacetic acid (EDTA) at pH 7.4). The cell suspension was disrupted with a Brinkman Polytron (at a setting of 8) for 10 sec. The disrupted cells were centrifuged at 1000×g for 10 min at 4° C. Supernatants were centrifuged at 34,500×g for 20 min at 4° C. The membrane pellets were suspended in a 2 mL volume of TNE (a mixture of 50 mM Tris-HCl, 5 mM EDTA and 150 mM NaCl at pH7.4). An aliquot of the membrane suspension was stored at −70° C. until use. The protein concentration was determined using a BioRad “DC” protein assay kit following membrane solubilization with Triton X-100.
(§3) Triplicate determinations of radio-ligand binding in the presence of increasing concentrations of testing compound were made. The reagents were added to 96-well polypropylene plate wells. Each assay well contained 140 μL TNE, 25 μL ^125I-2-(β-4-hydroxyplenyl)ethylaminomethyltetralone (^125I-HEAT) (specific activity 2200 Ci/mmol, Dupont-New England Nuclear, 50 pM final), 10 μL testing compound dissolved in dimethyl sulfoxide (DMSO) (1 pM to 10 μM in half-log increments, final), and 25 μL appropriate α1-AR membrane subtype suspension in TNE (0.5 ng/μL for the α1a and α1b subtypes and 13 ng/μL for the α1d subtype). The plate was incubated at rt for 1 hr. The contents of the wells were filtered through a glass filter (type C) (GF/C) membrane Unifilter plate (Packard Instruments) using the Packard Filtermate cell harvester. The filter plates were dried in a vacuum oven for 30 min at 40° C. 25 μL Microscint 20 liquid scintillation fluid (Packard Instuments) was added to each well. The radioactive content was analyzed in the TopCount microplate scintillation counter (Packard Instruments).
(§4) The Ki values (in nM) shown in Table 1 were determined using GraphPad Prism software.

[2] = biological target: T2, α1b-AR (Homo sapiens, UniProt P35368); assay: α1-Adrenergic receptor radio-ligand (125I-HEAT) binding assay, α1b subtype; settings: COS-7 cell membranes transfected with α1b-AR, 125I-HEAT 50 pM; read-out: Receptor Binding, Ki α1b-AR
T2 construct: expressed in transfected cells; host or cells: COS-7
T2 sequence (P35368 1-520): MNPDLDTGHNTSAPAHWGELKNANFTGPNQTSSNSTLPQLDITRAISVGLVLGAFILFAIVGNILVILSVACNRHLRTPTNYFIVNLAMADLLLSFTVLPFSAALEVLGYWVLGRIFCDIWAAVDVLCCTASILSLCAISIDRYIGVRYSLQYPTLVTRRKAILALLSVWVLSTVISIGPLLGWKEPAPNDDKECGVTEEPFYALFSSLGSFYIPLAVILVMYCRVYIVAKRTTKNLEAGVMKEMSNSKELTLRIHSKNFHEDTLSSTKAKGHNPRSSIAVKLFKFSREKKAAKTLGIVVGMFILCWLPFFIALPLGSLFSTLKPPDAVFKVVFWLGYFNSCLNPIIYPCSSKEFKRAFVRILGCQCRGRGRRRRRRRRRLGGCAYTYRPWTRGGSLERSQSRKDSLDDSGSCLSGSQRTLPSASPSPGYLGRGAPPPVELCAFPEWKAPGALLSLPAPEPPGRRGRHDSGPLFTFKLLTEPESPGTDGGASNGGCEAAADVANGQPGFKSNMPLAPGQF
Experimental: as §1, §2, §3, §4

[3] = biological target: T3, α1d-AR (Homo sapiens, UniProt P25100); assay: α1-Adrenergic receptor radio-ligand (125I-HEAT) binding assay, α1d subtype; settings: COS-7 cell membranes transfected with α1d-AR, 125I-HEAT 50 pM; read-out: Receptor Binding, Ki α1d-AR
T3 construct: expressed in transfected cells; host or cells: COS-7
T3 sequence (P25100 1-572): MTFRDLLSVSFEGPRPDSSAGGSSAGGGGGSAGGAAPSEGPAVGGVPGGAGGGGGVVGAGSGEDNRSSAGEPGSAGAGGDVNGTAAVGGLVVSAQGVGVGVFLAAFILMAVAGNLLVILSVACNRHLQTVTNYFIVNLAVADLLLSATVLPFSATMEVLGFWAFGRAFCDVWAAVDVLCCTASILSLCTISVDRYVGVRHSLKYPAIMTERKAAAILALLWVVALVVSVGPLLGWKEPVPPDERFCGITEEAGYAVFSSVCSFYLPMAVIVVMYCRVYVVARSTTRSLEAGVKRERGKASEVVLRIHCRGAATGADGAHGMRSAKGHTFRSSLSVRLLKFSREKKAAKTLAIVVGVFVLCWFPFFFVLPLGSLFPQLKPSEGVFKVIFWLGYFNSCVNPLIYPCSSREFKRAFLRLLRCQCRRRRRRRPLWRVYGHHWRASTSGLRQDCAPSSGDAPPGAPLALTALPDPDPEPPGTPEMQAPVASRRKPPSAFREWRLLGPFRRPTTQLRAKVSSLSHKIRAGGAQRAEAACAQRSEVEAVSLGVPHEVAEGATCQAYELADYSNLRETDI
Experimental: as §1, §2, §3, §4

SMILES | Ki [1] | Ki [2] | Ki [3]
COc1cccc(OC)c1C(=O)Nc1ccc2c(c1)N(C(=O)c1cccc(CN3CCN(c4ccccc4OC(C)C)CC3)c1)CC2 [Cpd 28, N-(1-{3-[4-(2-isopropoxy-phenyl)-piperazin-1-ylmethyl]-benzoyl}-2,3-dihydro-1H-indol-6-yl)-2,6-dimethoxy-benzamide] | 17 nM | 796 nM | 6.8 nM
COc1ccccc1C1CCN(Cc2ccc(C(=O)N3CCc4cc([N+](=O)[O-])ccc43)cc2)CC1 [Cpd 38, {4-[4-(2-methoxy-phenyl)-piperidin-1-ylmethyl]-phenyl}-(5-nitro-2,3-dihydro-indol-1-yl)-methanone] | 124 nM | 461 nM | 44.2 nM
COc1ccccc1N1CCN(Cc2cccc(C(=O)N3CCc4ccccc43)c2)CC1 [Cpd 30, (2,3-dihydro-indol-1-yl)-{3-[4-(2-methoxy-phenyl)-piperazin-1-ylmethyl]-phenyl}-methanone] | 26 nM and 30.5 nM | 278 nM and 193 nM | 4.5 nM and 42 nM
CCOC(OCC)c1ccc(CNc2ccc3c(c2)N(C(=O)c2ccc(CN4CCC(c5ccccc5OC)CC4)cc2)CC3)cc1 [Cpd 37, [6-(4-diethoxymethyl-benzylamino)-2,3-dihydro-indol-1-yl]-{4-[4-(2-methoxy-phenyl)-piperidin-1-ylmethyl]-phenyl}-methanone] | 75.6 nM | 909 nM | 98 nM
CC(C)Oc1ccccc1N1CCN(Cc2cccc(C(=O)N3CCc4ccc(NC5CCc6ccccc6C5)cc43)c2)CC1 (stereo not drawn) [Cpd 16, {3-[4-(2-isopropoxy-phenyl)-piperazin-1-ylmethyl]-phenyl}-[6-(1,2,3,4-tetrahydro-naphthalen-2-ylamino)-2,3-dihydro-indol-1-yl]-methanone] | 5.5 nM | 282 nM | 3.4 nM
CC(C)Oc1ccccc1N1CCN(Cc2cccc(C(=O)N3CCc4ccc(NC(=S)Nc5ccccc5)cc43)c2)CC1 [Cpd 13, 1-(1-{3-[4-(2-isopropoxy-phenyl)-piperazin-1-ylmethyl]-benzoyl}-2,3-dihydro-1H-indol-6-yl)-3-phenyl-thiourea] | 33 nM | 305 nM | 4 nM and 3.11 nM
COc1ccccc1C1CCN(Cc2ccc(C(=O)N3CCc4ccc(N)cc43)cc2)CC1 [Cpd 34, (6-amino-2,3-dihydro-indol-1-yl)-{4-[4-(2-methoxy-phenyl)-piperidin-1-ylmethyl]-phenyl}-methanone] | 34.9 nM | 473 nM | 49.6 nM
CC(C)Oc1ccccc1N1CCN(Cc2cccc(C(=O)N3CCc4ccc(NS(=O)(=O)c5c(F)cccc5F)cc43)c2)CC1 [Cpd 45, 2,6-difluoro-N-(1-{3-[4-(2-isopropoxy-phenyl)-piperazin-1-ylmethyl]-benzoyl}-2,3-dihydro-1H-indol-6-yl)-benzenesulfonamide] | 2.6 nM | 888 nM | 4 nM
CC(C)Oc1ccccc1N1CCN(Cc2cccc(C(=O)N3CCc4cc(NC(=O)Nc5ccccc5)ccc43)c2)CC1 [Cpd 21, 1-(1-{3-[4-(2-isopropoxy-phenyl)-piperazin-1-ylmethyl]-benzoyl}-2,3-dihydro-1H-indol-5-yl)-3-phenyl-urea] | 73 nM | 1390 nM | 12.5 nM
CC(C)Oc1ccccc1N1CCN(Cc2cccc(C(=O)N3CCc4ccc(NC(=O)c5ccc(F)cc5)cc43)c2)CC1 [Cpd 48, 4-fluoro-N-(1-{3-[4-(2-isopropoxy-phenyl)-piperazin-1-ylmethyl]-benzoyl}-2,3-dihydro-1H-indol-6-yl)-benzamide] | 74 nM | 889 nM | 6 nM

Now from value to molecule:

Ki [1] | Ki [2] | Ki [3] | SMILES
15 nM | 154 nM | 46 nM | CC(C)Oc1ccccc1N1CCN(Cc2cccc(C(=O)N3CCc4cc(-c5ccccc5)ccc43)c2)CC1 [Cpd 72, {3-[4-(2-isopropoxy-phenyl)-piperazin-1-ylmethyl]-phenyl}-(5-phenyl-2,3-dihydro-indol-1-yl)-methanone]
14 nM and 17.5 nM | 716 nM and 720 nM | 16 nM and 21 nM | CC(C)Oc1ccccc1N1CCN(Cc2cccc(C(=O)N3CCc4cc(S(C)(=O)=O)ccc43)c2)CC1 [Cpd 71, {3-[4-(2-isopropoxy-phenyl)-piperazin-1-ylmethyl]-phenyl}-(5-methanesulfonyl-2,3-dihydro-indol-1-yl)-methanone]
1.8 nM | 237 nM | 1.4 nM | CC(C)Oc1ccccc1C1CCN(Cc2cccc(C(=O)N3CCc4ccc(NCc5ccccc5F)cc43)c2)CC1 [Cpd 57, [6-(2-fluoro-benzylamino)-2,3-dihydro-indol-1-yl]-{3-[4-(2-isopropoxy-phenyl)-piperidin-1-ylmethyl]-phenyl}-methanone]
25.5 nM | 310 nM | 43 nM | O=C(c1ccc(CN2CCN(c3ccccc3OCC(F)(F)F)CC2)cc1)N1CCc2ccccc21 [Cpd 55, (2,3-dihydro-indol-1-yl)-(4-{4-[2-(2,2,2-trifluoro-ethoxy)-phenyl]-piperazin-1-ylmethyl}-phenyl)-methanone]
14 nM | 351 nM | 13 nM | CC(C)Oc1ccccc1N1CCN(Cc2cccc(C(=O)N3CCc4ccc(NC(N)=O)cc43)c2)CC1 [Cpd 49, (1-{3-[4-(2-isopropoxy-phenyl)-piperazin-1-ylmethyl]-benzoyl}-2,3-dihydro-1H-indol-6-yl)-urea]
82 nM | 104 nM | 96 nM | COc1ccccc1CN1CCN(Cc2ccc(C(=O)N3CCc4ccccc43)cc2)CC1 [Cpd 53, (2,3-dihydro-indol-1-yl)-{4-[4-(2-methoxy-benzyl)-piperazin-1-ylmethyl]-phenyl}-methanone]
0.8 nM | 106 nM | 1.6 nM | CC(C)Oc1ccccc1C1CCN(Cc2cccc(C(=O)N3CCc4ccccc43)c2)CC1 [Cpd 51, (2,3-dihydro-indol-1-yl)-{3-[4-(2-isopropoxy-phenyl)-piperidin-1-ylmethyl]-phenyl}-methanone]

From US20060183902A1, “Dihydroindolyl methanones as alpha 1a/1d adrenoreceptor modulators for the treatment of benign prostatic hypertrophy and lower urinary tract symptoms” (priority 2005, published 2006)
